Measured values: patent publication US20220340679A1, “CO-INHIBITION OF CD47/SIRPalpha BINDING AND NEDD8-ACTIVATING ENZYME E1 REGULATORY SUBUNIT FOR THE TREATMENT OF CANCER” (Gilead Sciences, Inc., priority 2021, published 2022)
Entries after “also recorded” stand apart in the source; their conditions may differ.

Tested on: U937 AML cells
Assay: AML xenograft model: luciferase-expressing U937 tumor cells in NSG mice, in-vivo bioluminescent imaging
Conditions: U937 i.v., azacitidine 7.5 mg/kg QD 5 days i.p., NAE1 SMI 120 mg/kg QD 5 days on, 2 days rest, magrolimab 250 μg QD
Procedure: FIG. 3 illustrates that NAE1 inhibition in combination with CD47 blockade elicits robust anti-tumor efficacy in an AML xenograft model. Luciferase-expressing U937 tumor cell were transferred to NSG mice by intravenous injection. On day 5, mice were randomized into cohorts and treated with Vehicle [20% (2-Hydroxypropyl)-β-cyclodextrin], azacitidine (7.5 mg/kg QD for 5 days), or NAE1 small molecule inhibitor (120 mg/kg QD for 5 days followed by 2 days/rest) by intraperitoneal injection. Magrolimab was administered 48 hours post chemo treatment (250 μg QD for the entire study) as a single agent or in combination. Tumor growth was monitored using in-vivo bioluminescent imaging and the resulting signal was reported as total flux.
To evaluate, if the combination of NAE1 SMI with magrolimab could increase the elimination of leukemia cells in vivo, a treatment study was conducted in mice transplanted with U937 AML cells. In addition to NAE1 SMI, azacitidine, a hypomethylating and chemotherapeutic agent indicated for AML was also included into the study, since azacitidine had previously been established to enhance elimination of AML cells when combined with magrolimab (Chao, et al., Front Oncol (2020) 9:1380). […]

Molecule | tumor growth / cancer remission (result in words)
Nc1ncn([C@@H]2O[C@H](CO)[C@@H](O)[C@H]2O)c(=O)n1 [azacitidine, 5-azacytidine, reference compound] | did initially slow tumor growth compared to vehicle control but failed to stop cancer progression
magrolimab: anti-CD47 antibody (antibody, chains of the INN, looked up, V domains shown) VH: QVQLVQSGAEVKKPGASVKVSCKASGYTFTNYNMHWVRQAPGQRLEWMGTIYPGNDDTSYNQKFKDRVTITADTSASTAYMELSSLRSEDTAVYYCARGGYRAMDYWGQGTLVTVSS VL: DIVMTQSPLSLPVTPGEPASISCRSSQSIVYSNGNTYLGWYLQKPGQSPQLLIYKVSNRFSGVPDRFSGSGSGTDFTLKISRVEAEDVGVYYCFQGSHVPYTFGQGTKLEIK | did initially slow tumor growth compared to vehicle control but failed to stop cancer progression; also recorded: modest
